Our source for the relative permittivity values is the NIST ThermoML archive (doi:10.1016/j.tca.2019.03.028).

± gives the expanded uncertainty stated by the source.

Data set [1] can be described thus: relative permittivity at various frequencies (dimensionless). As to conditions: 293.15 K; 100 kPa; Liquid; Frequency=0.01 MHz; Coaxial cylinder capacitor.
Data set [2] can be described thus: relative permittivity at various frequencies (dimensionless); wn = mass fraction of the nth substance listed. As to conditions: 293.15 K, 100 kPa, Liquid, Frequency=0.01 MHz, Coaxial cylinder capacitor.

For `CC#N` [acetonitrile], in data set [1], the relative permittivity is given as 37.7 ± 1.7. As for `CC#N` [acetonitrile] + ClC(Cl)(Cl)Cl, the relative permittivity in data set [2] (w1 = 1) came to 37.7 ± 1.7. In the case of `CC#N` [acetonitrile] + c1ccccc1, the relative permittivity in data set [2] (w1 = 0.25) worked out at 10.21 ± 0.49; in data set [2] (w1 = 0.5), 19.8 ± 0.93; in data set [2] (w1 = 0.75), 28.5 ± 1.3; in data set [2] (w1 = 1), 37.7 ± 1.7.

`c1ccccc1` [benzene]: the relative permittivity in data set [1] turned out to be 2.29 ± 0.13. With `c1ccccc1` [benzene] + C1CCCCC1, the relative permittivity in data set [2] (w2 = 0) is given as 2.29 ± 0.13. `c1ccccc1` [benzene] + CC#N: in data set [2] (w2 = 0), the relative permittivity is 2.29 ± 0.13. As to `C1CCCCC1` [cyclohexane], the relative permittivity in data set [1] is 2.02 ± 0.12. On to `C1CCCCC1` [cyclohexane] + c1ccccc1, for which the relative permittivity turned out to be 2.2 ± 0.13 in data set [2] (w1 = 0.25), 2.13 ± 0.13 in data set [2] (w1 = 0.5), 2.07 ± 0.12 in data set [2] (w1 = 0.75) and 2.02 ± 0.12 in data set [2] (w1 = 1). Take `ClC(Cl)(Cl)Cl` [tetrachloromethane]: the relative permittivity in data set [1] stood at 2.23 ± 0.13.

Turning to `ClC(Cl)(Cl)Cl` [tetrachloromethane] + CC#N, the relative permittivity was 2.23 ± 0.13 in data set [2] (w2 = 0), 14.96 ± 0.71 in data set [2] (w2 = 0.25), 25.7 ± 1.2 in data set [2] (w2 = 0.5) and 34.2 ± 1.6 in data set [2] (w2 = 0.75).
